{"source": "patent EP2236157A1", "about": "(PharmaNeuroBoost N.V., priority 2009, dated 2010)", "key": {"[1]": {"tested_on": "patients with OCD", "assay": "semi-naturalistic open label study of combo pipamperone-citalopram in obsessive-compulsive disorder (Example 4)", "assay_type": "in vivo", "settings": "pipamperone 16-19 mg/day + citalopram 30-60 mg/day", "experimental": "This semi-naturalistic open label study investigates the efficacy and tolerability of the combo pipamperone - citalopram in the treatment of patients with OCD.\nCharacteristics: patients have an obsessive-compulsive disorder according to DSM-IV criteria, with or without a chronic course and a treatment refractory state towards another SSRI than citalopram.\nTreatment with the combo pipamperone-citalopram (n = 7). Treatment with fluvoxamine (controlled release) mean 271 mg/day (n = 253) is according to Hollander et al. (2003).\nThe intention-to-treat/last-observation-carried-forward analysis is evaluated relating to therapeutic efficacy according Y-BOCS total score, obsession and compulsion scores."}, "[2]": {"molecular_target": "T1, D4 receptor (Homo sapiens, UniProt P21917)", "T1 sequence (P21917 1-419)": "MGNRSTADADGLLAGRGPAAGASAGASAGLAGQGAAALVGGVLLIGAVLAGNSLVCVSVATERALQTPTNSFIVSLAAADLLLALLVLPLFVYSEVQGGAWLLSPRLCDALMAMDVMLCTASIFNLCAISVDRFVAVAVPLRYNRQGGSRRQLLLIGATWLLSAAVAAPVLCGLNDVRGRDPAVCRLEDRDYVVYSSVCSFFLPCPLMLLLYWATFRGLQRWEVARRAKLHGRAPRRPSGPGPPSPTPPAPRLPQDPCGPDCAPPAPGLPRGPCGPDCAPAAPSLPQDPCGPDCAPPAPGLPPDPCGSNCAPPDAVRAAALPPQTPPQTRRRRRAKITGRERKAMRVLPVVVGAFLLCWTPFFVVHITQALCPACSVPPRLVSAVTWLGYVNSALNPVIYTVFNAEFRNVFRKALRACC", "assay": "receptor binding affinity (pKi)", "settings": "read-out: pKi value towards the D4 receptor (converted)"}, "[3]": {"tested_on": "patients with major depression", "assay": "semi-naturalistic open label study of combo pipamperone-citalopram in major depression (Example 2)", "assay_type": "in vivo", "source_text": "This semi-naturalistic open label study investigated the efficacy and tolerability of the combo pipamperone - citalopram in the treatment of patients with major depression.\n• Design: Semi-naturalistic i.e. inclusion of every 'natural' patient in an outpatient practice but without concomitant use of mood enhancing drugs, open label • Control: No • Phase: Phase IIa - preliminary Proof of Concept • Location: Belgium - Research Centre ANIMA, Alken • End Points : Assessment scale scores, Hamilton Depression Rating Scale 17 items, Reduction, Response, Remission • Medication: Exclusion of mood stabilisers, antipsychotics (typical and atypical) and other antidepressants\nPatients have a major depressive disorder according to DSM-IV criteria, with or without a chronic course and a treatment refractory state towards another SSRI than citalopram. […]\nAdverse events are assessed on: body as a whole, central and peripheral nervous system, gastrointestinal, musculoskeletal, psychiatric, respiratory, skin and appendages, vascular and urinary, taking into account discontinued treatment due to adverse events. Laboratory parameters, ECG, bodyweight and vital signs are not measured since this is a naturalistic study."}, "[4]": {"molecular_target": "other dopamine receptors", "assay": "receptor binding affinity (pKi)"}, "[5]": {"tested_on": "adrenergic receptors α-1A, α-2A, α-2B, α-2C, β-1, β-2, and the histamine receptor H1", "assay": "receptor binding affinity (Table 1)", "settings": "β-1, β-2 and histamine receptor H1"}, "[6]": {"molecular_target": "other 5HT receptors", "assay": "receptor binding affinity (pKi)"}}}
{"molecule": "NC(=O)C1(N2CCCCC2)CCN(CCCC(=O)c2ccc(F)cc2)CC1", "note": "[pipamperone, 1'-[3-(p-Fluorobenzoyl)propyl]-[1,4'-bipiperidine]-4'-carboxamide]", "values": [{"measurement": "sedative effects", "setting": "[1]", "result": "lacking"}, {"measurement": "Ki", "setting": "[2]", "result": "≤ 10", "unit": "nM"}, {"measurement": "sedative effects", "setting": "[3]; major depression study, pipamperone 16-19 mg/day", "result": "lacking"}, {"measurement": "boosting effect on a SSRI (citalopram)", "setting": "[3]; major depression, pipamperone 16-19 mg/day + citalopram 10-20 mg/day, PO, 8 weeks", "result": "apparent"}, {"measurement": "pKi value towards other dopamine receptors", "setting": "[4]", "result": "less than 8"}, {"measurement": "affinity for other receptors", "setting": "[5]", "result": "low or absence of affinity"}, {"measurement": "pKi value towards other 5HT receptors", "setting": "[6]", "result": "less than 8"}]}
